Data set [1] deals with AMO-1 myeloma cell line xenograft. The data set can be described thus: AMO-1 myeloma cell line xenograft study. It is filed as in vivo. The following applies: AMO-1 xenograft, mice, IV QD for the first 5 days. Here is the method:
FIG. 1 are the results of an AMO-1 myeloma cell line xenograft study with a compound of Formula X. Eight mice were used per group, and mice were dosed by intravenous injection (IV) daily (QD) for the first 5 days of the study with various concentrations of the compound of Formula X.
(§1) FIG. 1 are the results of an AMO-1 myeloma cell line xenograft study with a compound of Formula X and with an MCL1 inhibitor being tested in humans and available as catalog number HY-112218 on Oct. 2, 2020 (MedChemExpress LLC, New Jersey, USA). Eight mice were used per group, and mice were dosed by intravenous injection (IV) daily (QD) for the first 5 days of the study with various concentrations of the compound of Formula X or with HY-112218. The 10 mg/kg dose of HY-112218 and the 60 mg/kg dose of the compound of Formula X are about the maximum tolerated dose for mice and represent a theoretical efficacious dose for humans.
Xenograft models of human cancer cell lines were established in six-week-old CD-1 athymic nude mice by subcutaneous injection of 1.0-3.0×10^7 cells with or without 50% matrigel. […] Tumor xenografts were measured with calipers three times per week, and tumor volume (in mm^3) was determined by multiplying height×width×length. […] Data were analyzed using StudyLog software from StudyDirector (San Francisco, Calif.).

Data set [2] in a line: Maximum tolerated dose in mice. The following applies: CD-1 athymic nude, mouse, in vivo, iv. Here is the method: as §1
The next data set has as its target MCL1 (Homo sapiens, UniProt Q07820). The data set can be described thus: MCL1 affinity assay (competition binding, qPCR readout). Conditions: recombinant MCL1, 11-point 3-fold dilution series. The method, boiled down:
(§2)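 Competition binding: DNA-tagged recombinant protein (E. coli BL21-derived or HEK-293), biotinylated peptide ligand-loaded streptavidin beads and compound incubated 1 hour at room temperature, 0.9% DMSO final. Bound protein eluted with 0.5 μM non-biotinylated ligand and quantified by qPCR; Kd from 11-point 3-fold dilution series.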
Background: Quantitative PCR measures a nucleic acid by following its amplification.

The next data set concerns the target BCL2 (Homo sapiens, UniProt P10415). Nature of the data set: BCL2 affinity assay (competition binding, qPCR readout). The following applies: recombinant BCL2, 11-point 3-fold dilution series. The method in brief: as §2
Data set [3] deals with drug-resistant cell lines of Table 3. The data set can be described thus: Cell line growth retardation assay, resistant cohort. The following applies: arithmetic mean of IC50s over the resistant cohort of Table 3, 6 days growth, read-out: AvgRes IC50. Format: cell-based, Human. The method, boiled down:
(§3)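 Cell lines classed as MCL1-inhibition sensitive or resistant were seeded, rested 24 h, then exposed to 10–0.0032 μM compound for 6 days. Cells were counted by imaging; growth inhibition was the ratio of population doublings with vs without compound from a pre-treatment baseline. IC50 from curve fits, averaged per cohort.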

The test system of data set [4] is drug-sensitive cell lines of Table 3. The data set can be described thus: Cell line growth retardation assay, sensitive cohort. Format: cell-based, Human. The following applies: for IC50: arithmetic mean of IC50s over the sensitive cohort of Table 3, 6 days growth, read-out: AvgSen IC50; for Fold Diff: average IC50 of resistant cohort divided by average IC50 of sensitive cohort. The method, boiled down: as §3

A further data set addresses BCLXL (Homo sapiens, UniProt Q07817). Nature of the data set: BCLXL affinity assay (competition binding, qPCR readout). Conditions: recombinant BCLXL, 11-point 3-fold dilution series. The method in brief:
as §2

Read-outs that look alike come from different tables or passages of the source.

Results on seven compounds are retold here after patent publication US20230116602A1, “MCL1 INHIBITORS AND USES THEREOF” (California Institute of Technology, priority 2019, published 2023).

One may read the MTD as the largest dose that counted as tolerated. Low readings indicate poorer tolerability, high ones better tolerability. What is called Kd is a measure of binding affinity in units of concentration. As a reminder, the IC50 is the concentration at which inhibition is half-maximal.

Sequence of BCL2 (P10415 whole entry): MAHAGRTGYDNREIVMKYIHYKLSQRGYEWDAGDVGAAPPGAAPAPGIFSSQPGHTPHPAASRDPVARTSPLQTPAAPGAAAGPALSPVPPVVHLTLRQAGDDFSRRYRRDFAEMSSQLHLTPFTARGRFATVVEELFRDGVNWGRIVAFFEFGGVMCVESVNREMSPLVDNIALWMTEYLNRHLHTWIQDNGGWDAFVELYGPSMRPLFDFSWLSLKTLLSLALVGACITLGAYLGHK
Sequence of BCLXL (Q07817 whole entry): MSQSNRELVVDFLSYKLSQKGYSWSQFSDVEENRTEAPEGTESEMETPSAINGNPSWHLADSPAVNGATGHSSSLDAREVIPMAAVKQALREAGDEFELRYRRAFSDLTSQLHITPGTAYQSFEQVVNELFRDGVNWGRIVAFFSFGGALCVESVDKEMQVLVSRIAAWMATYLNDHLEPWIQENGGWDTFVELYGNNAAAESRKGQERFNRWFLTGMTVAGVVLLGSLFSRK
Sequence of MCL1 (Q07820 whole entry): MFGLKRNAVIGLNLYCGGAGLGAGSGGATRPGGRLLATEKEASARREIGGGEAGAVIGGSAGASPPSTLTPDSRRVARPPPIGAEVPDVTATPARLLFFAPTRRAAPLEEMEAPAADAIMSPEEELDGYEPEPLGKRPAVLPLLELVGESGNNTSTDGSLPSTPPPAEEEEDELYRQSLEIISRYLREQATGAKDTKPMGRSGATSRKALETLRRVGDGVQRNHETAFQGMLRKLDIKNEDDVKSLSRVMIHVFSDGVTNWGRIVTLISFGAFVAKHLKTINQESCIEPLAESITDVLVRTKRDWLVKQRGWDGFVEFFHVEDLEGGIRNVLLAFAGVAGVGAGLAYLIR

As for `COc1ccccc1-c1nccc(COc2ccccc2C[C@@H](Oc2ncnc3sc(-c4ccc(F)cc4)c(-c4ccc(OCCN5CCN(C)CC5)c(Cl)c4C)c23)C(=O)O)n1` [HY-112218, (R)-2-((5-(3-chloro-2-methyl-4-(2-(4-methylpiperazin-1-yl)ethoxy)phenyl)-6-(4-fluorophenyl)thieno[2,3-d]pyrimidin-4-yl)oxy)-3-(2-((2-(2-methoxyphenyl)pyrimidin-4-yl)methoxy)phenyl)propanoic acid], the “day of study at which treated tumors resumed growth” value in data set [1] was about 21 days. The MTD at 5 days in data set [2] is about 10 mg/kg.

As for `Cc1c(-c2c(-c3cccc4[nH]c(C(F)(F)F)cc34)ncc3snc(O[C@H](Cc4ccccc4OCc4ccnn4CC(F)(F)F)C(=O)O)c23)ccc(OCCN2CCN(C)CC2)c1Cl` (atropisomer, axis not shown) [Compound 16], the dissociation constant (Kd) on MCL1, on BCL2 and at BCLXL was over 1500 nM throughout. Moreover, the IC50 was over 5000 nM in data set [3] (Homo sapiens, 144 h) and over 5000 nM in data set [4] (Homo sapiens, 144 h). Moreover, the “Fold Diff” value in data set [4] is given as “− (“−” represents a fold difference less than 10)”.

Turning to `Cc1c(-c2c(-c3cccc4c3sc3ccccc34)ncc3snc(O[C@H](Cc4ccccc4OCc4ccnn4CC(F)(F)F)C(=O)O)c23)ccc(OCCN2CCN(C)CC2)c1Cl` (atropisomer, axis not shown) [Compound 9], the Kd on MCL1, on BCL2 and on BCLXL was over 1500 nM each time. In addition, the IC50 in data set [3] (Homo sapiens, 144 h) was over 5000 nM; in data set [4] (Homo sapiens, 144 h) it was over 5000 nM. The “Fold Diff” value in data set [4] is on record as “− (“−” represents a fold difference less than 10)”.

As for `COc1cccc(-c2ncc3snc(O[C@H](Cc4ccccc4OCc4ccnn4CC(F)(F)F)C(=O)O)c3c2-c2ccc(OCCN3CCN(C)CC3)c(Cl)c2C)c1` (atropisomer, axis not shown) [Compound 23], the dissociation constant Kd at MCL1 was 101 to 500 nM; on BCL2, over 1500 nM; at BCLXL, over 1500 nM. Besides, the 50% inhibitory concentration (IC50) is over 5000 nM in data set [3] (Homo sapiens, 144 h) and at most 1000 nM in data set [4] (Homo sapiens, 144 h). Besides, the “Fold Diff” value in data set [4] is given as “+ (“+” represents a fold difference of 10 or more)”.

In the case of `COc1cc(-c2nccc(COc3ccccc3C[C@@H](Oc3nsc4cnc(-c5cccc(F)c5)c(-c5ccc(OCCN6CCN(C)CC6)c(Cl)c5C)c34)C(=O)O)n2)ccn1` (atropisomer, axis not shown) [Compound 71], the Kd was 101 to 500 nM on MCL1, over 1500 nM at BCL2 and over 1500 nM at BCLXL. For the same compound, the IC50 is over 5000 nM in data set [3] (Homo sapiens, 144 h) and at most 1000 nM in data set [4] (Homo sapiens, 144 h). Besides, the “Fold Diff” value in data set [4] was “+ (“+” represents a fold difference of 10 or more)”.

On to `Cc1c(-c2c(-c3cccc4c3CCC4)ncc3snc(O[C@H](Cc4ccccc4OCc4ccnn4CC(F)(F)F)C(=O)O)c23)ccc(OCCN2CCN(C)CC2)c1Cl` (atropisomer, axis not shown) [Compound 13], for which the dissociation constant Kd at MCL1, on BCL2 and on BCLXL was over 1500 nM each time. The IC50 in data set [3] (Homo sapiens, 144 h) is over 5000 nM; in data set [4] (Homo sapiens, 144 h) it was over 5000 nM. Besides, the “Fold Diff” value in data set [4] is “− (“−” represents a fold difference less than 10)”.

For `Cc1c(-c2c(-c3ccc(F)cc3)ncc3snc(O[C@H](Cc4ccccc4OCc4ccnn4CC(F)(F)F)C(=O)O)c23)ccc(OCCN2CCN(C)CC2)c1Cl` (single isomer, unassigned) [Compound 5], the equilibrium dissociation constant (Kd) at MCL1, on BCL2 and on BCLXL was over 1500 nM each time. Moreover, the IC50 in data set [3] and in data set [4] was over 5000 nM throughout. Besides, the “Fold Diff” value in data set [4] is recorded as “− (“−” represents a fold difference less than 10)”.
